According to patent US20120214862A1, “MODULATION OF FACTOR 7 EXPRESSION” (ISIS Pharmaceuticals, Inc., priority 2009, published 2012):
In the oligonucleotide strings, read from the 5' end, every base follows the letter of its sugar. An asterisk marks phosphorothioate; unmarked linkages are phosphodiester. Other units and linkages are bracketed, terminal groups are in braces. A string of capitals states the bases alone. e = 2'-O-(2-methoxyethyl) (MOE); [5mC] = 5-methylcytosine; d = 2'-deoxy (DNA)

Test system: human Factor 7 mRNA
Assay: Antisense inhibition of human Factor 7 mRNA in HepB3 cells, lipofectin, 50 nM, real-time RT-PCR
Format: cell-based
Conditions: Example 1; HepB3 cells, lipofectin, 50 nM, ~24 h, relative to untreated control cells
Experimental: Antisense oligonucleotides targeted to a Factor 7 nucleic acid were tested for their effects on Factor 7 mRNA in vitro. Cultured HepB3 cells at a density of 4,000 cells per well were transfected using lipofectin reagent with 50 nM antisense oligonucleotide. After a treatment period of approximately 24 hours, RNA was isolated from the cells and Factor 7 mRNA levels were measured by real-time RT-PCR, as described herein. Factor 7 mRNA levels were adjusted according to total RNA content as measured by RIBOGREEN®. Results are presented as percent inhibition of Factor 7, relative to untreated control cells.
(§1) Antisense oligonucleotides targeted to a Factor 7 nucleic acid were designed and tested for their effects on Factor 7 mRNA in vitro. Certain antisense oligonucleotides from Table 3 were also retested for their effects on Factor 7 mRNA in vitro. Cultured HepB3 cells at a density of 4,000 cells per well were transfected using lipofectin reagent with 50 nM antisense oligonucleotide. After a treatment period of approximately 24 hours, RNA was isolated from the cells and Factor 7 mRNA levels were measured by real-time RT-PCR, as described herein. Human Factor 7 primer probe set RTS 2927 was used to measure mRNA levels. Factor 7 mRNA levels were adjusted according to total RNA content as measured by RIBOGREEN®. Results are presented as percent inhibition of Factor 7, relative to untreated control.
as §1, with “tested” for “tested for their effects on Factor 7 mRNA in vitro. Certain antisense oligonucleotides from Table 3 were also retested”
These gapmers were designed by creating gapmers shifted slightly upstream and downstream (i.e. “microwalk”) of the original gapmers from Table 7. Gapmers were also created with various motifs, e.g. 5-10-5 MOE, 3-14-3 MOE, and 2-13-5 MOE. These gapmers were tested in vitro. Cultured HepB3 cells at a density of 4,000 cells per well were transfected using lipofectin reagent with 50 nM antisense oligonucleotide. After a treatment period of approximately 24 hours, RNA was isolated from the cells and Factor 7 mRNA levels were measured by real-time RT-PCR. Factor 7 mRNA levels were adjusted according to total RNA content, as measured by RIBOGREEN®. Results are presented as percent inhibition of Factor 7, relative to untreated control cells.

Row | Substance | % Inhibition (human Factor 7 mRNA) [%]
1 | 403090 (antisense eA*eG*eT*e[5mC]*e[5mC]*dT*dG*dG*dG*dT*d[5mC]*dA*dT*d[5mC]*dA*eG*e[5mC]*e[5mC]*eG*eG) [compound 403090] | 69
2 | 403093 (antisense eG*eA*eG*eA*e[5mC]*d[5mC]*d[5mC]*dT*dG*dG*dT*dG*dT*dA*d[5mC]*eA*e[5mC]*e[5mC]*e[5mC]*e[5mC]) [compound 403093] | 75
3 | 407595 (antisense eT*e[5mC]*e[5mC]*eT*eG*dA*dG*dG*d[5mC]*d[5mC]*dT*dT*dA*dG*d[5mC]*eG*eA*e[5mC]*e[5mC]*e[5mC]) [compound 407595] | 71
4 | 407596 (antisense eG*eA*eG*eG*e[5mC]*d[5mC]*d[5mC]*d[5mC]*dG*dG*d[5mC]*dT*dT*d[5mC]*d[5mC]*eA*e[5mC]*eG*eG*e[5mC]) [compound 407596] | 61
5 | 407597 (antisense eT*eG*eT*eT*eG*dA*d[5mC]*dA*dT*dT*d[5mC]*d[5mC]*d[5mC]*d[5mC]*dA*eT*eG*eG*eG*eA) [compound 407597] | 39
6 | 407598 (antisense e[5mC]*e[5mC]*eA*eT*eG*dA*dT*dG*dA*dA*dA*dT*d[5mC]*dT*d[5mC]*eT*eG*e[5mC]*eA*eG) [compound 407598] | 72
7 | 407599 (antisense e[5mC]*e[5mC]*eT*eG*eG*dG*dA*dG*dA*d[5mC]*d[5mC]*dA*dT*dG*dA*eT*eG*eA*eA*eA) [compound 407599] | 73
8 | 407600 (antisense eT*eG*eA*eA*eG*d[5mC]*d[5mC]*d[5mC]*dA*dA*dG*d[5mC]*dA*dG*dA*eA*eG*eG*e[5mC]*eA) [compound 407600] | 61
9 | 407601 (antisense e[5mC]*eA*eG*e[5mC]*e[5mC]*d[5mC]*dT*dG*dA*dA*dG*d[5mC]*d[5mC]*d[5mC]*dA*eA*eG*e[5mC]*eA*eG) [compound 407601] | 52
10 | 407602 (antisense e[5mC]*eT*eG*e[5mC]*eA*dG*d[5mC]*d[5mC]*dA*dG*dG*d[5mC]*dA*dG*d[5mC]*e[5mC]*e[5mC]*eT*eG*eA) [compound 407602] | 81
11 | 407603 (antisense eT*eA*eA*eG*eA*dA*dA*dT*d[5mC]*d[5mC]*dA*dG*dA*dA*d[5mC]*eA*eG*e[5mC]*eT*eT) [compound 407603] | 54
12 | 407604 (antisense e[5mC]*eA*e[5mC]*eA*e[5mC]*dT*dG*dG*dT*d[5mC]*d[5mC]*d[5mC]*d[5mC]*dA*dT*e[5mC]*eA*e[5mC]*eT*eG) [compound 407604] | 34
13 | 407605 (antisense eT*eT*eG*eA*eG*dG*d[5mC]*dA*d[5mC]*dA*d[5mC]*dT*dG*dG*dT*e[5mC]*e[5mC]*e[5mC]*e[5mC]*eA) [compound 407605] | 58
14 | 407607 (antisense eT*eG*eG*eA*eG*d[5mC]*dT*dG*dG*dT*d[5mC]*d[5mC]*dT*dT*dG*e[5mC]*eA*eG*eG*eA) [compound 407607] | 76
15 | 407608 (antisense eT*eA*eT*eA*eG*dG*dA*d[5mC]*dT*dG*dG*dA*dG*d[5mC]*dT*eG*eG*eT*e[5mC]*e[5mC]) [compound 407608] | 13
16 | 407609 (antisense eA*eG*eA*eA*eG*d[5mC]*dA*dG*dA*dT*dA*dT*dA*dG*dG*eA*e[5mC]*eT*eG*eG) [compound 407609] | 35
17 | 407610 (antisense eA*eG*eG*eG*eA*dG*dG*d[5mC]*dA*dG*dA*dA*dG*d[5mC]*dA*eG*eA*eT*eA*eT) [compound 407610] | 31
18 | 407611 (antisense eT*e[5mC]*eT*e[5mC]*eA*d[5mC]*dA*dG*dT*dT*d[5mC]*d[5mC]*dG*dG*d[5mC]*e[5mC]*e[5mC]*eT*e[5mC]*eG) [compound 407611] | 82
19 | 407612 (antisense eA*eG*eA*eT*e[5mC]*dA*dG*d[5mC]*dT*dG*dG*dT*d[5mC]*dA*dT*e[5mC]*e[5mC]*eT*eT*eG) [compound 407612] | 82

Row | Substance | % Inhibition (human Factor 7 mRNA) [%]
20 | 407613 (antisense eT*eG*e[5mC]*eT*e[5mC]*dA*d[5mC]*dA*dG*d[5mC]*d[5mC]*dG*d[5mC]*d[5mC]*dG*eT*eT*e[5mC]*eT*e[5mC]) [compound 407613] | 66
21 | 407614 (antisense eT*eG*e[5mC]*eA*eG*dT*dA*d[5mC]*dT*dG*d[5mC]*dT*d[5mC]*dA*d[5mC]*eA*eG*e[5mC]*e[5mC]*eG) [compound 407614] | 78
22 | 407615 (antisense eG*eA*e[5mC]*eA*e[5mC]*d[5mC]*d[5mC]*d[5mC]*dG*dT*d[5mC]*dT*dG*d[5mC]*d[5mC]*eA*eG*e[5mC]*eA*eG) [compound 407615] | 65
23 | 407616 (antisense eT*eG*e[5mC]*eA*eG*dG*dA*d[5mC]*dA*d[5mC]*d[5mC]*d[5mC]*d[5mC]*dG*dT*e[5mC]*eT*eG*e[5mC]*e[5mC]) [compound 407616] | 64
24 | 407617 (antisense eT*e[5mC]*e[5mC]*eA*e[5mC]*dA*dT*dG*dG*dA*dT*dA*dT*dT*d[5mC]*eA*eA*e[5mC]*eT*eG) [compound 407617] | 67
25 | 407618 (antisense eG*eT*eA*eT*eT*dT*dT*dT*d[5mC]*d[5mC]*dA*d[5mC]*dA*dT*dG*eG*eA*eT*eA*eT) [compound 407618] | 42
26 | 407619 (antisense eA*eG*eA*eA*eT*dA*dG*dG*dT*dA*dT*dT*dT*dT*dT*e[5mC]*e[5mC]*eA*e[5mC]*eA) [compound 407619] | 64
27 | 407620 (antisense eA*eG*eG*eA*e[5mC]*d[5mC]*dT*dG*d[5mC]*d[5mC]*dA*dT*dG*dG*dA*e[5mC]*eA*e[5mC]*eT*e[5mC]) [compound 407620] | 79
28 | 407621 (antisense eA*e[5mC]*eA*eA*e[5mC]*dA*dG*dG*dA*d[5mC]*d[5mC]*dT*dG*d[5mC]*d[5mC]*eA*eT*eG*eG*eA) [compound 407621] | 62
29 | 407622 (antisense eT*e[5mC]*eA*e[5mC]*e[5mC]*dA*dA*d[5mC]*dA*dA*d[5mC]*dA*dG*dG*dA*e[5mC]*e[5mC]*eT*eG*e[5mC]) [compound 407622] | 55
30 | 407623 (antisense eT*e[5mC]*e[5mC]*eA*eT*dT*d[5mC]*dA*d[5mC]*d[5mC]*dA*dA*d[5mC]*dA*dA*e[5mC]*eA*eG*eG*eA) [compound 407623] | 69
31 | 407624 (antisense eG*eA*eG*eA*e[5mC]*d[5mC]*dA*d[5mC]*d[5mC]*d[5mC]*dA*dG*dA*dT*dG*eG*eT*eG*eT*eT) [compound 407624] | 73
32 | 407625 (antisense eT*eT*eG*eT*e[5mC]*dG*dA*dA*dA*d[5mC]*dA*dG*dT*dG*dG*eG*e[5mC]*e[5mC]*eG*e[5mC]) [compound 407625] | 100
33 | 407626 (antisense eT*e[5mC]*eT*eT*eG*dA*dT*dT*dT*dT*dG*dT*d[5mC]*dG*dA*eA*eA*e[5mC]*eA*eG) [compound 407626] | 82
34 | 407627 (antisense eG*e[5mC]*e[5mC]*e[5mC]*eA*dG*d[5mC]*dA*d[5mC]*d[5mC]*dG*d[5mC]*dG*dA*dT*e[5mC]*eA*eG*eG*eT) [compound 407627] | 79
35 | 407628 (antisense eT*eG*eA*eT*eG*dA*d[5mC]*d[5mC]*dT*dG*d[5mC]*dG*d[5mC]*d[5mC]*dA*e[5mC]*e[5mC]*e[5mC]*eG*e[5mC]) [compound 407628] | 38
36 | 407629 (antisense eT*e[5mC]*eA*eG*eT*dG*dA*dG*dG*dA*d[5mC]*d[5mC]*dA*d[5mC]*dG*eG*eG*e[5mC]*eT*eG) [compound 407629] | 34
37 | 407630 (antisense e[5mC]*eA*e[5mC]*eA*eT*dG*dG*dT*d[5mC]*dA*dG*dT*dG*dA*dG*eG*eA*e[5mC]*e[5mC]*eA) [compound 407630] | 29
38 | 407631 (antisense eG*eG*eG*e[5mC]*eA*d[5mC]*d[5mC]*dA*d[5mC]*dA*dT*dG*dG*dT*d[5mC]*eA*eG*eT*eG*eA) [compound 407631] | 66
